Results taken from US20240174637A1, “DEGRADERS OF GRK2 AND USES THEREOF” (Sonata Therapeutics, Inc., priority 2021, published 2024).

Assays:
GRK2 [1] = molecular target: T1, GRK2 (Homo sapiens, UniProt P25098); experiment: Second ADPGlo GRK2 Inhibition Assay (Example 3); assay type: biochemical; details: ADP-Glo, 20 μM ATP; read-out: Second ADPGlo Enzymatic GRK2 Assay: IC50 (nM) (Example 3)
T1 sequence (P25098 1-689): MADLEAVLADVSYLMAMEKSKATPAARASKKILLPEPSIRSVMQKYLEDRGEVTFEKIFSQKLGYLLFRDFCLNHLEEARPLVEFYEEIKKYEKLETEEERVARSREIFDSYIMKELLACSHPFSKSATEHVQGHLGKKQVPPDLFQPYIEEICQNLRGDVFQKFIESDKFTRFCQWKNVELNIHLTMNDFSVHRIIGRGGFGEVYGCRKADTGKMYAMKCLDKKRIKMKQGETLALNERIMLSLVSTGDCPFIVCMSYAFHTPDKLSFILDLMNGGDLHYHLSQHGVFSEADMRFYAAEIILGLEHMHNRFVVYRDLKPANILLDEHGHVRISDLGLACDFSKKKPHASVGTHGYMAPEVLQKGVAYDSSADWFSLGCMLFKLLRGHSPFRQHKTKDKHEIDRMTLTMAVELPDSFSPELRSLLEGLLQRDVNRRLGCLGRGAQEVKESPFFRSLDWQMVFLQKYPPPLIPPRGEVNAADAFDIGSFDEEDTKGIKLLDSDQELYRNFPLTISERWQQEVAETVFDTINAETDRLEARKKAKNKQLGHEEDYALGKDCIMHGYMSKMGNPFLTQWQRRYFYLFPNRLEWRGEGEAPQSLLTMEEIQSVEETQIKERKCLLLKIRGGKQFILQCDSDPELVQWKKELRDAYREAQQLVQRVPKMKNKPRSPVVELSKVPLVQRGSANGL
Method: Assay: GRK2 (2 nM) was incubated with ATP (20 μM) and GRKtide (1.2 mg/mL) in 11 μL of assay buffer (see above) for 180 min at room temperature. Compounds were dissolved in 100% DMSO, serially diluted 3.16-fold from 100 μM with 10 concentration points and transferred as 100× into assay plate (final compounds concentration in the reaction plate from 1 μM).
Materials: GRK2 was purchased from SignalChem (Cat #A14-10G, Lot #X645-3). Substrate GRKtide was from SignalChem (Cat #G46-58, Lot #R339-6). ADP-Glo Kinase Assay from Promega (Cat #V9102). Assay buffer consisted of 20 mM HEPES (pH7.5), 20 mM MgCl2, 0.01% Tween-20, 0.05 mM DDT. 384-well white plates were from Corning (Cat #4513).
HTS protocol: Add 5.5 μL of 2× substrate-enzyme mix into all columns except of 1-2 and 24 of reaction plate. Spin 15 seconds at 200 g. Transfer 1 ul of compounds from the plate with serial dilutions (384 well plate with 22 uL of compound in columns 3-22/DMSO solution 1-2,23-24) to Dilution plate (384 well plate with 49 uL of buffer with 2×40 μM ATP). After mixing transfer 5.5 ul from Dilution plate to Reaction plate (to 5.5 μL of 2× substrate-enzyme mix). Spin 15 seconds at 200 g and incubate for 180 min at room temperature with sealing. Add 3 μL ADP-Glo reagent to all the wells. Spin 15 seconds at 200 g and incubate for 40 min at room temperature. Add 6 μL Detection solution to all the wells. Incubate for 30 min at room temperature. Read plate using ClarioStar Plus (BMG).
Data Analysis: Data were analyzed in GraphPad Prism 5.0.2. Each HTS plate contains compounds in columns 3-22, controls (enzyme, no compound) in column 23, and blanks (no enzyme) in columns 2. HTS percent inhibition was calculated for each compound from the signal in luminescence units and the mean of the plate controls and the mean of the plate blanks using the following equation: % Inhibition=100*(1-(signal-blank mean)/(control mean-blank mean)).

GRK2 [2] = molecular target: T1, GRK2; experiment: GRK2 Degradation Assay and Western Blot in PAXF1657 cells; assay type: cell-based; parameters: endogenous in cells; host or cells: PAXF1657; details: read-out: Degradation Assay - 3 point: Degradation (%); for inhibition at 0.3 µM: Conc 0.3 uM; for inhibition at 1 µM: Conc 1 uM; for inhibition at 3 µM: Conc 3 uM
Outline: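 PAXF1657 cells grown to 70% confluency, then treated with compounds at 0–10 μM for 6 to 24 h at 37 °C. Lysates in PBS with 1% NP40 run on SDS-PAGE. GRK2 protein detected by western blot with β-actin as loading reference, using ECL chemiluminescence.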

PAXF1657 KO Clone #4 = experiment: 7-day cellular proliferation assay (CellTiter-Glo), PAXF1657 KO Clone #4; assay type: cell-based; details: proliferation, read-out: GeoMean IC50 (uM) PAXF1657 KO Clone #4
Outline: (§1)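 Seven-day growth in PAXF1657 lines engineered for GRK2 overexpression or knockout, measured by CellTiter-Glo; compounds tested at 30 μM-0.0002 μM final and replenished once at day 3.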

GRK2 [3] = molecular target: T1, GRK2; experiment: GRK2 Inhibition Assay (TR-FRET, Example 1); assay type: biochemical; details: Table 4; Example 1 assay; read-out: Enzymatic GRK2 IC50: Av IC50 GRK2
Outline: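 GRK2 (1 nM) pre-incubated 30 min RT with compounds in HEPES/MgCl2/DTT/Tween-20/EGTA buffer, then reacted 90 min RT with 7 μM ATP and 50 nM ULight-TopoIIα substrate. Stopped with EDTA plus Eu anti-TopoIIα antibody; TR-FRET read after 60 min.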

PAXF1657 EV = experiment: 7-day cellular proliferation assay (CellTiter-Glo), PAXF1657 EV; assay type: cell-based; details: proliferation, read-out: GeoMean IC50 (UM) PAXF1657 EV
Outline: as §1

Row | SMILES | IC50 (GRK2 [1]) [nM] | inhibition at 0.3 µM (GRK2 [2]) [%] | inhibition at 1 µM (GRK2 [2]) [%] | inhibition at 3 µM (GRK2 [2]) [%] | IC50 (PAXF1657 KO Clone #4) [µM] | IC50 (GRK2 [3]) [nM] | IC50 (PAXF1657 EV) [nM]
1 | Cn1c(CNc2cccc(C(=O)NCc3cccc(OCCCCCCOCCOCCCCCC(=O)Nc4cccc5c4CN(C4CCC(=O)NC4=O)C5=O)c3)c2)nnc1-c1ccncn1 (stereo not drawn) [Compound D52] | < 100 | – | – | – | – | – | –
2 | COc1cc(OCCNC(=O)CCOCCOCCOCCNC(=O)Nc2cccc3c2CN(C2CCC(=O)NC2=O)C3=O)ccc1CNC(=O)c1cccc(NCc2nnc(-c3ccncn3)n2C)c1 (stereo not drawn) [Compound D68] | > 1000 | – | – | – | – | – | –
3 | Cn1c(CNc2cccc(C(=O)NCc3cccc(OCCCCCCC(=O)Nc4cccc5c4CN(C4CCC(=O)NC4=O)C5=O)c3)c2)nnc1-c1ccncn1 (stereo not drawn) [Compound D69] | < 100 | – | – | – | – | – | –
4 | C[C@@H](NC(=O)c1cccc(NCc2nnc(-c3ccncn3)n2C)c1)c1cccc(OCCCCCOCCCOCC(=O)N2CCN(c3cc4c(cc3F)C(=O)N(C3CCC(=O)NC3=O)C4=O)CC2)c1 (stereo partly drawn) [Compound D180, N-((1R)-1-(3-((5-(3-(2-(4-(2-(2,6-dioxopiperidin-3-yl)-6-fluoro-1,3-dioxoisoindolin-5-yl)piperazin-1-yl)-2-oxoethoxy)propoxy)pentyl)oxy)phenyl)ethyl)-3-(((4-methyl-5-(pyrimidin-4-yl)-4H-1,2,4-triazol-3-yl)methyl)amino)benzamide] | – | 43 | 74 | 85 | > 30 | 7.31 | 820
5 | C[C@@H](NC(=O)c1cccc(NCc2nnc(-c3ccncn3)n2C)c1)c1cccc(OCCCCCOCCCOCC(=O)N2CCN(c3ccc4c(c3)CN(C3CCC(=O)NC3=O)C4=O)CC2)c1 (stereo partly drawn) [Compound D181, N-((1R)-1-(3-((5-(3-(2-(4-(2-(2,6-dioxopiperidin-3-yl)-1-oxoisoindolin-5-yl)piperazin-1-yl)-2-oxoethoxy)propoxy)pentyl)oxy)phenyl)ethyl)-3-(((4-methyl-5-(pyrimidin-4-yl)-4H-1,2,4-triazol-3-yl)methyl)amino)benzamide] | – | 55 | 78 | 86 | > 30 | 11.8 | 580
6 | C[C@@H](NC(=O)c1cccc(NCc2nnc(-c3ccncn3)n2C)c1)c1cccc(OCCCCCOCCCOCC(=O)Nc2cccc3c2CN(C2CCC(=O)NC2=O)C3=O)c1 (stereo partly drawn) [Compound D183, N-((1R)-1-(3-((5-(3-(2-((2-(2,6-dioxopiperidin-3-yl)-1-oxoisoindolin-4-yl)amino)-2-oxoethoxy)propoxy)pentyl)oxy)phenyl)ethyl)-3-(((4-methyl-5-(pyrimidin-4-yl)-4H-1,2,4-triazol-3-yl)methyl)amino)benzamide] | – | 82 | 86.5 | 94.6 | > 30 | 16.7 | 110
7 | C[C@H](NC(=O)c1cccc(NCc2nnc(-c3ccncn3)n2C)c1)c1cccc(OCCCCCOCCCOCC(=O)Nc2cccc3c2CN(C2CCC(=O)NC2=O)C3=O)c1 (stereo partly drawn) [Compound D185, N-((1S)-1-(3-((5-(3-(2-((2-(2,6-dioxopiperidin-3-yl)-1-oxoisoindolin-4-yl)amino)-2-oxoethoxy)propoxy)pentyl)oxy)phenyl)ethyl)-3-(((4-methyl-5-(pyrimidin-4-yl)-4H-1,2,4-triazol-3-yl)methyl)amino)benzamide] | – | 1.79 | 17.5 | 19.2 | > 30 | 211 | > 30000
8 | C[C@@H](NC(=O)c1cccc(NCc2nnc(-c3ccncn3)n2C)c1)c1cccc(OCCCCCCOCCOCCOCCCCCC(=O)Nc2cccc3c2CN(C2CCC(=O)N(C)C2=O)C3=O)c1 (stereo partly drawn) [Compound D190] | – | -22 | 51 | 53 | 26.8 | 12.7 | 1740
9 | C[C@@H](NC(=O)c1cccc(NCc2nnc(-c3ccncn3)n2C)c1)c1cccc(OCCCCCCOCCOCCOCCCCCC(=O)N2CCN(c3ccc4c(c3)CN(C3CCC(=O)NC3=O)C4=O)CC2)c1 (stereo partly drawn) [Compound D191, N-((1R)-1-(3-((6-(2-(2-((6-(4-(2-(2,6-dioxopiperidin-3-yl)-1-oxoisoindolin-5-yl)piperazin-1-yl)-6-oxohexyl)oxy)ethoxy)ethoxy)hexyl)oxy)phenyl)ethyl)-3-(((4-methyl-5-(pyrimidin-4-yl)-4H-1,2,4-triazol-3-yl)methyl)amino)benzamide] | – | 36.7 | 78.1 | 86 | > 30 | 24.9 | 320
10 | C[C@@H](NC(=O)c1cccc(NCc2nnc(-c3ccncn3)n2C)c1)c1cccc(OCCCCCOCCCOCCNc2cccc3c2CN(C2CCC(=O)NC2=O)C3=O)c1 (stereo partly drawn) [Compound D196, N-((1R)-1-(3-(5-(3-(2-(2-(2,6-dioxopiperidin-3-yl)-1-oxoisoindolin-4-ylamino)ethoxy)propoxy)pentyloxy)phenyl)ethyl)-3-((4-methyl-5-(pyrimidin-4-yl)-4H-1,2,4-triazol-3-yl)methylamino)benzamide] | – | 66.2 | 71.1 | 38.9 | > 30 | 23.8 | 360
11 | Cn1c(CNc2cccc(C(=O)NCc3cc(OCCCCCOCCCOCC(=O)Nc4cccc5c4CN(C4CCC(=O)NC4=O)C5=O)ccc3F)c2)nnc1-c1ccncn1 (stereo not drawn) [Compound D197, N-(5-(5-(3-(2-(2-(2,6-dioxopiperidin-3-yl)-1-oxoisoindolin-4-ylamino)-2-oxoethoxy)propoxy)pentyloxy)-2-fluorobenzyl)-3-((4-methyl-5-(pyrimidin-4-yl)-4H-1,2,4-triazol-3-yl)methylamino)benzamide] | – | -6.8 | 27.7 | 54.5 | > 30 | 82.3 | 5890
12 | C[C@@H](NC(=O)c1cccc(NCc2nnc(-c3ccncn3)n2C)c1)c1cccc(OCCCCCOCCCOCCOc2cccc3c2CN(C2CCC(=O)NC2=O)C3=O)c1 (stereo partly drawn) [Compound D198, N-((1R)-1-(3-((5-(3-(2-((2-(2,6-dioxopiperidin-3-yl)-1-oxoisoindolin-4-yl)oxy)ethoxy)propoxy)pentyl)oxy)phenyl)ethyl)-3-(((4-methyl-5-(pyrimidin-4-yl)-4H-1,2,4-triazol-3-yl)methyl)amino)benzamide] | – | 83.9 | 81.6 | 50.3 | > 30 | 22.1 | 10
